Test system: 454973-116-R2-J3-PDC complex spheroid viability
Experiment: Anticancer human tumor 454973-116-R2-J3-PDC patient-derived pancreatic carcinoma cell line growth inhibition [POLQ]
Conditions: for IC50: curve of first compound; for viability, T/C: stronger effect = lower value; active = viability on the fitted dose curve at most 10% of control; inactive = the rest
Summary of the method: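 Three-cell-type spheroids modelling solid tumor plus stroma served as the readout system; POL inhibitors were tested individually and in combination, concentration ranges set by clinical Cmax where known.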

[1] = second compound 0.0316 µM, first compound 0.0316 µM
[2] = second compound 0.0316 µM, first compound 0.1 µM
[3] = second compound 0.0316 µM, first compound 0.316 µM
[4] = second compound 0.0316 µM, first compound 1 µM
[5] = second compound 0.1 µM, first compound 0.0316 µM
[6] = second compound 0.1 µM, first compound 0.1 µM
[7] = second compound 0.1 µM, first compound 0.316 µM
[8] = second compound 0.1 µM, first compound 1 µM
[9] = second compound 0.316 µM, first compound 0.0316 µM
[10] = second compound 0.316 µM, first compound 0.1 µM
[11] = second compound 0.316 µM, first compound 0.316 µM
[12] = second compound 0.316 µM, first compound 1 µM
[13] = second compound 1 µM, first compound 0.0316 µM
[14] = second compound 1 µM, first compound 0.1 µM
[15] = second compound 1 µM, first compound 0.316 µM
[16] = second compound 1 µM, first compound 1 µM
[17] = second compound 3.16 µM, first compound 0.0316 µM
[18] = second compound 3.16 µM, first compound 0.1 µM
[19] = second compound 3.16 µM, first compound 0.316 µM
[20] = second compound 3.16 µM, first compound 1 µM
[21] = second compound 10 µM, first compound 0.0316 µM
[22] = second compound 10 µM, first compound 0.1 µM
[23] = second compound 10 µM, first compound 0.316 µM
[24] = second compound 10 µM, first compound 1 µM
[25] = second compound 0.0316 µM, first compound 0.00316 µM
[26] = second compound 0.0316 µM, first compound 0.01 µM
[27] = second compound 0.1 µM, first compound 0.00316 µM
[28] = second compound 0.1 µM, first compound 0.01 µM
[29] = second compound 0.316 µM, first compound 0.00316 µM
[30] = second compound 0.316 µM, first compound 0.01 µM
[31] = second compound 1 µM, first compound 0.00316 µM
[32] = second compound 1 µM, first compound 0.01 µM
[33] = second compound 3.16 µM, first compound 0.00316 µM
[34] = second compound 3.16 µM, first compound 0.01 µM
[35] = second compound 10 µM, first compound 0.00316 µM
[36] = second compound 10 µM, first compound 0.01 µM
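Also: spheroids exposed to drugs for seven days before measurement.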
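For viability, T/C in this document: percent viability relative to DMSO vehicle control wells taken as 100%.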

CC1COCCN1c1cc(-c2ccnn2C)c2ccnc(-c3ccn[nH]3)c2n1 (stereo unspecified) + Nc1ccc(C#CCN(C(=O)Cc2ncc(C(F)(F)F)cc2C(F)(F)F)c2ccc(F)cc2)nn1
117 nM: IC50 (second compound 0.1 µM)
inactive: viability, T/C [1] 83.6% | viability, T/C [2] 57.6% | viability, T/C [3] 19.8% | viability, T/C [4] 11.3% | viability, T/C (second compound 0.0316 µM, first compound 3.16 µM) 14% | viability, T/C (second compound 0.0316 µM, first compound 10 µM) 14.1% | viability, T/C [5] 80.3% | viability, T/C [6] 54.6% | viability, T/C [7] 20.1% | viability, T/C [8] 13.5% | viability, T/C (second compound 0.1 µM, first compound 3.16 µM) 11.2% | viability, T/C (second compound 0.1 µM, first compound 10 µM) 14.6% | viability, T/C [9] 91% | viability, T/C [10] 55.6% | viability, T/C [11] 19.1% | viability, T/C [12] 9.76% | viability, T/C (second compound 0.316 µM, first compound 3.16 µM) 12.6% | viability, T/C (second compound 0.316 µM, first compound 10 µM) 14.6% | viability, T/C [13] 90.2% | viability, T/C [14] 52.7% | viability, T/C [15] 16.8% | viability, T/C [16] 11.3% | viability, T/C (second compound 1 µM, first compound 3.16 µM) 13.6% | viability, T/C (second compound 1 µM, first compound 10 µM) 14.5% | viability, T/C [17] 88.7% | viability, T/C [18] 55.6% | viability, T/C [19] 18.2% | viability, T/C [20] 11.3% | viability, T/C (second compound 3.16 µM, first compound 3.16 µM) 9.64% | viability, T/C (second compound 3.16 µM, first compound 10 µM) 11.8% | viability, T/C [21] 92.5% | viability, T/C [22] 45.7% | viability, T/C [23] 17.5% | viability, T/C [24] 10.5% | viability, T/C (second compound 10 µM, first compound 3.16 µM) 10.2% | viability, T/C (second compound 10 µM, first compound 10 µM) 13.4%
90 nM: IC50 (second compound 10 µM)
126 nM: IC50 (second compound 0.0316 µM)
119 nM: IC50 (second compound 0.316 µM) | IC50 (second compound 3.16 µM)
109 nM: IC50 (second compound 1 µM)

C=CCn1c(=O)c2cnc(Nc3ccc(N4CCN(C)CC4)cc3)nc2n1-c1cccc(C(C)(C)O)n1 + COC1C(OC(N)=O)C(O)C(Oc2ccc3c(O)c(NC(=O)c4ccc(O)c(CC=C(C)C)c4)c(=O)oc3c2C)OC1(C)C
549 nM: IC50 (second compound 1 µM)
inactive: viability, T/C [25] 107% | viability, T/C [26] 98.3% | viability, T/C [1] 102% | viability, T/C [2] 95.5% | viability, T/C [3] 81.2% | viability, T/C [4] 16.6% | viability, T/C [27] 99.7% | viability, T/C [28] 104% | viability, T/C [5] 102% | viability, T/C [6] 103% | viability, T/C [7] 76.1% | viability, T/C [8] 17.3% | viability, T/C [29] 102% | viability, T/C [30] 104% | viability, T/C [9] 104% | viability, T/C [10] 103% | viability, T/C [11] 74.7% | viability, T/C [12] 20.5% | viability, T/C [31] 112% | viability, T/C [32] 101% | viability, T/C [13] 105% | viability, T/C [14] 104% | viability, T/C [15] 79.2% | viability, T/C [16] 18.2% | viability, T/C [33] 104% | viability, T/C [34] 106% | viability, T/C [17] 111% | viability, T/C [18] 110% | viability, T/C [19] 86.8% | viability, T/C [20] 19.8% | viability, T/C [35] 101% | viability, T/C [36] 98.8% | viability, T/C [21] 99.5% | viability, T/C [22] 105% | viability, T/C [23] 82.9% | viability, T/C [24] 18.8%
548 nM: IC50 (second compound 0.0316 µM)
527 nM: IC50 (second compound 0.1 µM)
571 nM: IC50 (second compound 10 µM)
535 nM: IC50 (second compound 0.316 µM)
596 nM: IC50 (second compound 3.16 µM)

CC[C@@]1(O)C(=O)OCc2c1cc1n(c2=O)Cc2cc3c(CN(C)C)c(O)ccc3nc2-1 + Cc1cccc(N(C)C(=O)C2C(O)CCN2c2nc(C)cc(C(F)(F)F)c2C#N)c1
16.8 nM: IC50 (second compound 3.16 µM)
18.7 nM: IC50 (second compound 0.0316 µM)
18.6 nM: IC50 (second compound 1 µM)
inactive: viability, T/C (second compound 0.0316 µM, first compound 0.000316 µM) 92.2% | viability, T/C (second compound 0.0316 µM, first compound 0.001 µM) 102% | viability, T/C [25] 90.5% | viability, T/C [26] 85.3% | viability, T/C [1] 20.4% | viability, T/C [2] 16.1% | viability, T/C (second compound 0.1 µM, first compound 0.000316 µM) 104% | viability, T/C (second compound 0.1 µM, first compound 0.001 µM) 104% | viability, T/C [27] 99.8% | viability, T/C [28] 88.6% | viability, T/C [5] 20.2% | viability, T/C [6] 19.7% | viability, T/C (second compound 0.316 µM, first compound 0.000316 µM) 98.3% | viability, T/C (second compound 0.316 µM, first compound 0.001 µM) 118% | viability, T/C [29] 113% | viability, T/C [30] 83.9% | viability, T/C [9] 18.4% | viability, T/C [10] 16.5% | viability, T/C (second compound 1 µM, first compound 0.000316 µM) 103% | viability, T/C (second compound 1 µM, first compound 0.001 µM) 106% | viability, T/C [31] 97.1% | viability, T/C [32] 84.9% | viability, T/C [13] 19.6% | viability, T/C [14] 19.8% | viability, T/C (second compound 3.16 µM, first compound 0.000316 µM) 116% | viability, T/C (second compound 3.16 µM, first compound 0.001 µM) 106% | viability, T/C [33] 105% | viability, T/C [34] 76% | viability, T/C [17] 16.8% | viability, T/C [18] 19.8% | viability, T/C (second compound 10 µM, first compound 0.000316 µM) 107% | viability, T/C (second compound 10 µM, first compound 0.001 µM) 96.6% | viability, T/C [35] 97.3% | viability, T/C [36] 85.6% | viability, T/C [21] 21.3% | viability, T/C [22] 22.6%
18.1 nM: IC50 (second compound 0.316 µM)
19.2 nM: IC50 (second compound 0.1 µM)
19.1 nM: IC50 (second compound 10 µM)
